Data taken from ChEMBL document CHEMBL1201862, “PubChem BioAssay data set” (2004).
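Five concentrations, 48 hours, 96-well plates. GI50 marks 50% less growth.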 Calls of active or inactive are those of the source. Cut-off read from the data, not from the text of the source: active = GI50 up to about 1.1 µM and inactive = higher.

Experiments:
Assay in all cases: NCI-60 cell line screen, 48 h
TK-10 = tested on: TK-10
RXF 631 = tested on: RXF 631
HCT-116 = tested on: HCT-116
SNB-78 = tested on: SNB-78
HL-60 = tested on: HL-60
XF498 = tested on: XF498
HOP-62 = tested on: HOP-62
CAKI-1 = tested on: CAKI-1
CCRF-CEM = tested on: CCRF-CEM
UACC-62 = tested on: UACC-62
DMS-273 = tested on: DMS-273
RPMI-8226 = tested on: RPMI-8226
A549 = tested on: A549
NCI-H522 = tested on: NCI-H522
HOP-92 = tested on: HOP-92
786-0 = tested on: 786-0
NCI-H460 = tested on: NCI-H460
SNB-75 = tested on: SNB-75
LOX IMVI = tested on: LOX IMVI
SR = tested on: SR
HCT-15 = tested on: HCT-15
SK-MEL-5 = tested on: SK-MEL-5
SF-268 = tested on: SF-268
SNB-19 = tested on: SNB-19
OVCAR-3 = tested on: OVCAR-3
UO-31 = tested on: UO-31
RXF 393 = tested on: RXF 393
KM12 = tested on: KM12
KM-20L2 = tested on: KM-20L2
EKVX = tested on: EKVX
MOLT-4 = tested on: MOLT-4
UACC-257 = tested on: UACC-257
SW-620 = tested on: SW-620
DLD-1 = tested on: DLD-1
SF-295 = tested on: SF-295
A498 = tested on: A498
SN12C = tested on: SN12C
DMS-114 = tested on: DMS-114
SK-MEL-2 = tested on: SK-MEL-2
OVCAR-4 = tested on: OVCAR-4
COLO 205 = tested on: COLO 205
M14 = tested on: M14
SK-MEL-28 = tested on: SK-MEL-28
OVCAR-8 = tested on: OVCAR-8
M19-MEL = tested on: M19-MEL
U-251 = tested on: U-251
SK-OV-3 = tested on: SK-OV-3
HCC 2998 = tested on: HCC 2998
K562 = tested on: K562
ACHN = tested on: ACHN
LXFL 529 = tested on: LXFL 529
NCI-H23 = tested on: NCI-H23
SF-539 = tested on: SF-539
IGROV-1 = tested on: IGROV-1
HT-29 = tested on: HT-29
Malme-3M = tested on: Malme-3M
OVCAR-5 = tested on: OVCAR-5
NCI-H226 = tested on: NCI-H226

With `Cn1ccnc1Cn1cc(-c2cccc(-c3cn[nH]c3)c2)cn1` the GI50 (TK-10) was 35.5 µM (inactive), the GI50 (RXF 631) was > 100 µM (inactive) and the GI50 (HCT-116) was 50.7 µM (inactive). For the same compound, the GI50 (SNB-78) was > 100 µM (inactive), the GI50 (HL-60) was > 100 µM (inactive) and the GI50 (XF498) was > 100 µM (inactive). The GI50 (HOP-62) was > 100 µM (inactive), the GI50 (CAKI-1) was 15.2 µM (inactive) and the GI50 (CCRF-CEM) was 58.5 µM (inactive). The GI50 (UACC-62) was 9.23 µM (inactive), the GI50 (DMS-273) was > 100 µM (inactive) and the GI50 (RPMI-8226) was > 100 µM (inactive). For the same compound, the GI50 (A549) was 39.6 µM (inactive), the GI50 (NCI-H522) was 22.6 µM (inactive) and the GI50 (HOP-92) was 50.1 µM (inactive). The GI50 (786-0) was > 100 µM (inactive), the GI50 (NCI-H460) was > 100 µM (inactive) and the GI50 (SNB-75) was 23.2 µM (inactive). For the same compound, the GI50 (LOX IMVI) was 88.5 µM (inactive), the GI50 (SR) was 80 µM (inactive) and the GI50 (HCT-15) was 79.3 µM. For the same compound, the GI50 (SK-MEL-5) was > 100 µM (inactive), the GI50 (SF-268) was 44.6 µM (inactive) and the GI50 (SNB-19) was > 100 µM (inactive). For the same compound, the GI50 (OVCAR-3) was > 100 µM (inactive), the GI50 (UO-31) was 19.2 µM (inactive) and the GI50 (RXF 393) was 24.8 µM (inactive). For the same compound, the GI50 (KM12) was > 100 µM (inactive), the GI50 (KM-20L2) was > 100 µM (inactive) and the GI50 (EKVX) was 14.6 µM (inactive). For the same compound, the GI50 (MOLT-4) was 63.4 µM (inactive), the GI50 (UACC-257) was > 100 µM (inactive) and the GI50 (SW-620) was 82.6 µM (inactive). The GI50 (DLD-1) was > 100 µM (inactive), the GI50 (SF-295) was > 100 µM (inactive) and the GI50 (A498) was 38.1 µM (inactive). For the same compound, the GI50 (SN12C) was 69.7 µM (inactive), the GI50 (DMS-114) was > 100 µM (inactive) and the GI50 (SK-MEL-2) was > 100 µM (inactive). For the same compound, the GI50 (OVCAR-4) was 55.2 µM (inactive), the GI50 (COLO 205) was > 100 µM (inactive) and the GI50 (M14) was > 100 µM (inactive). For the same compound, the GI50 (SK-MEL-28) was > 100 µM (inactive), the GI50 (OVCAR-8) was > 100 µM (inactive) and the GI50 (M19-MEL) was > 100 µM (inactive). The GI50 (U-251) was 84.5 µM (inactive), the GI50 (SK-OV-3) was 0.753 µM (active) and the GI50 (HCC 2998) was > 100 µM (inactive). The GI50 (K562) was 55 µM (inactive), the GI50 (ACHN) was 28.1 µM (inactive) and the GI50 (LXFL 529) was 99.1 µM (inactive).

With `O=c1cccccc1NCCCCCCCCNc1cccccc1=O` the GI50 (NCI-H23) was 6.78 µM (inactive), the GI50 (SF-539) was > 100 µM (inactive) and the GI50 (IGROV-1) was 94.2 µM (inactive). The GI50 (RXF 631) was 1.74 µM (inactive), the GI50 (HT-29) was > 100 µM (inactive) and the GI50 (HCT-116) was 9.62 µM (inactive). The GI50 (SNB-78) was > 100 µM (inactive), the GI50 (HL-60) was 3.53 µM (inactive) and the GI50 (XF498) was 23 µM (inactive). The GI50 (HOP-62) was > 100 µM (inactive), the GI50 (CAKI-1) was > 100 µM (inactive) and the GI50 (CCRF-CEM) was > 100 µM (inactive). The GI50 (UACC-62) was > 100 µM (inactive), the GI50 (DMS-273) was 55.7 µM (inactive) and the GI50 (RPMI-8226) was 6.56 µM (inactive). The GI50 (A549) was 39.9 µM (inactive), the GI50 (NCI-H522) was 75.3 µM (inactive) and the GI50 (HOP-92) was 22.9 µM (inactive). For the same compound, the GI50 (786-0) was > 100 µM (inactive), the GI50 (NCI-H460) was 85.7 µM (inactive) and the GI50 (SNB-75) was 32.4 µM (inactive). The GI50 (LOX IMVI) was 14.3 µM (inactive), the GI50 (SR) was 17.8 µM (inactive) and the GI50 (HCT-15) was > 100 µM. For the same compound, the GI50 (SF-268) was > 100 µM (inactive), the GI50 (SNB-19) was 38.1 µM (inactive) and the GI50 (OVCAR-3) was 7.59 µM (inactive). The GI50 (UO-31) was 35.4 µM (inactive), the GI50 (RXF 393) was > 100 µM (inactive) and the GI50 (KM12) was > 100 µM (inactive). For the same compound, the GI50 (KM-20L2) was > 100 µM (inactive), the GI50 (EKVX) was 24.9 µM (inactive) and the GI50 (MOLT-4) was 36.1 µM (inactive). For the same compound, the GI50 (UACC-257) was > 100 µM (inactive), the GI50 (SW-620) was > 100 µM (inactive) and the GI50 (DLD-1) was > 100 µM (inactive). For the same compound, the GI50 (SF-295) was 18.8 µM (inactive), the GI50 (SN12C) was > 100 µM (inactive) and the GI50 (DMS-114) was 1.77 µM (inactive). The GI50 (Malme-3M) was > 100 µM (inactive), the GI50 (SK-MEL-2) was > 100 µM (inactive) and the GI50 (COLO 205) was > 100 µM (inactive). For the same compound, the GI50 (M14) was > 100 µM (inactive), the GI50 (OVCAR-8) was > 100 µM (inactive) and the GI50 (M19-MEL) was > 100 µM (inactive). The GI50 (OVCAR-5) was > 100 µM (inactive), the GI50 (U-251) was > 100 µM (inactive) and the GI50 (SK-OV-3) was > 100 µM (inactive). The GI50 (HCC 2998) was > 100 µM (inactive), the GI50 (K562) was 7.06 µM (inactive) and the GI50 (ACHN) was 3.33 µM (inactive). The GI50 (NCI-H226) was > 100 µM (inactive) and the GI50 (LXFL 529) was 47.9 µM (inactive).

In the case of `COc1ccc2cc1Oc1ccc(cc1)C[C@@H]1c3cc(c(OC)cc3CCN1C)Oc1c(OC)c(OC)cc3c1[C@@H](C2)N(C)CC3` [PHAEANTHINE], the GI50 (NCI-H23) is reported as 17.6 µM (inactive), the GI50 (SF-539) is reported as 10.9 µM (inactive) and the GI50 (IGROV-1) is reported as 19.8 µM (inactive). The GI50 (TK-10) was 19.2 µM (inactive), the GI50 (RXF 631) was 14.1 µM (inactive) and the GI50 (HCT-116) was 2.83 µM (inactive). For the same compound, the GI50 (SNB-78) was 16.6 µM (inactive), the GI50 (HL-60) was 16.7 µM (inactive) and the GI50 (XF498) was 6.98 µM (inactive). The GI50 (HOP-62) was 18.9 µM (inactive), the GI50 (CCRF-CEM) was 14.3 µM (inactive) and the GI50 (DMS-273) was 17.3 µM (inactive). The GI50 (RPMI-8226) was 15.6 µM (inactive), the GI50 (NCI-H522) was 15.7 µM (inactive) and the GI50 (HOP-92) was 13.2 µM (inactive). For the same compound, the GI50 (NCI-H460) was 14.3 µM (inactive), the GI50 (SNB-75) was 9.73 µM (inactive) and the GI50 (SR) was 15.9 µM (inactive). The GI50 (HCT-15) was 15.6 µM, the GI50 (SK-MEL-5) was 17.2 µM (inactive) and the GI50 (SF-268) was 25 µM (inactive). For the same compound, the GI50 (SNB-19) was 16.9 µM (inactive), the GI50 (OVCAR-3) was 15.7 µM (inactive) and the GI50 (RXF 393) was 1.6 µM (inactive). For the same compound, the GI50 (KM-20L2) was 6.56 µM (inactive), the GI50 (UACC-257) was 14.9 µM (inactive) and the GI50 (DLD-1) was 24.8 µM (inactive). The GI50 (SF-295) was 17.5 µM (inactive), the GI50 (A498) was 18.5 µM (inactive) and the GI50 (M14) was 1.98 µM (inactive). For the same compound, the GI50 (OVCAR-8) was 14.9 µM (inactive), the GI50 (U-251) was 13.2 µM (inactive) and the GI50 (SK-OV-3) was 24.7 µM (inactive). The GI50 (HCC 2998) was 15.8 µM (inactive), the GI50 (K562) was 2.11 µM (inactive) and the GI50 (ACHN) was 19.2 µM (inactive). The GI50 (LXFL 529) was 18.7 µM (inactive).
